Data on one compound can be found in article PMC3170264 (Retrovirology, 2011).

As a reminder, the IC50 is the concentration that inhibits the measured activity by half.

The target of one experiment is T1, HIV-2 N1 IN (Human immunodeficiency virus type 2 subtype B, UniProt Q89928, I1218V/I1301V/I1372V/M1455R/N1185G/N1438H/R1202K/R1392Q/T1348V/T1383A/V1460M).
T1 construct: His-tag (pET-15b) (N); made in house; host or cells: Escherichia coli BL21-CodonPlus (DE3)-RIPL
T1 sequence (Q89928 1169-1464 N1185G/R1202K/I1218V/I1301V/T1348V/I1372V/T1383A/R1392Q/N1438H/M1455R/V1460M limits assumed): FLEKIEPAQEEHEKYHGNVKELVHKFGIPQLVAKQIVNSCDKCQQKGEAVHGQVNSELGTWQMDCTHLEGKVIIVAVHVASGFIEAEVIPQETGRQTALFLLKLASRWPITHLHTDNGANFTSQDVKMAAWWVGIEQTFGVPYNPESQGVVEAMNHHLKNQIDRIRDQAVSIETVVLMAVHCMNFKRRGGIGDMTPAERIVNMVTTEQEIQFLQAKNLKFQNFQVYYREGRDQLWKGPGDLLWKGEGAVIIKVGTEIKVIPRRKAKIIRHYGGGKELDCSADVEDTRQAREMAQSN
The experiment is described as follows: strand transfer inhibition, IN from clinical isolate N1 (wild-type reference). The format is biochemical. Particulars: IN from RAL-naive patient N1; 200 nM IN; 37°C; Mg2+. As for the experimental part: (§1) The ST reaction was performed using a ^32P-labeled oligonucleotide mimicking the preprocessed substrate. Drug concentrations are indicated above each lane. […] Activity is expressed as a % of control without drug. Experiments were repeated two times.
(§2) The HIV-2 ODN substrate sequences were: UA: 5'-[…]-3'; U5B: 5'-[…]-3'; U5B-2: 5'-[…] […]-3'.

The next experiment addresses T2, HIV-2 IN (N1 to N3) (Human immunodeficiency virus type 2 subtype B, UniProt Q89928, I1218V/I1301V/I1372V/M1455R/N1185G/N1438H/R1202K/R1392Q/T1348V/T1383A/V1460M).
T2 construct: His-tag (pET-15b) (N); made in house; host or cells: Escherichia coli BL21-CodonPlus (DE3)-RIPL
T2 sequence (Q89928 1169-1464 N1185G/R1202K/I1218V/I1301V/T1348V/I1372V/T1383A/R1392Q/N1438H/M1455R/V1460M limits assumed): T1 sequence (Q89928 1169-1464 N1185G/R1202K/I1218V/I1301V/T1348V/I1372V/T1383A/R1392Q/N1438H/M1455R/V1460M limits assumed)
The experiment is described as follows: 3'-processing inhibition, INs from clinical isolates N1 to N3. Particulars: at concentrations up to 1 μM; data not shown. The format is biochemical. As for the experimental part: (§3) The activity of wild-type and mutated INs was determined in vitro, as previously described. Briefly, oligonucleotides (ODN) mimicking the end of the U5 long terminal repeat of the viral genome were radiolabeled with T4 polynucleotide kinase (Biolabs, Ipswich, USA) and [γ-^32P] ATP (3,000 Ci/mmol) (Amersham, GE Healthcare, USA), then purified on a Sephadex G-10 column (GE Healthcare, USA). Double-stranded ODNs were obtained by mixing equimolar amounts of complementary strands in the presence of 100 mM NaCl.

In another experiment the target is T3, HIV-2 IN Q148R (Human immunodeficiency virus type 2 subtype B, UniProt Q89928, I1218V/I1301V/I1372V/M1455R/N1185G/N1438H/Q1316R/R1202K/R1392Q/T1348V/T1383A/V1460M).
T3 construct: His-tag (pET-15b) (N); made in house; host or cells: Escherichia coli BL21-CodonPlus (DE3)-RIPL
T3 sequence (Q89928 with tags, fused parts or gaps N1185G/R1202K/I1218V/I1301V/Q1316R/T1348V/I1372V/T1383A/R1392Q/N1438H/M1455R/V1460M): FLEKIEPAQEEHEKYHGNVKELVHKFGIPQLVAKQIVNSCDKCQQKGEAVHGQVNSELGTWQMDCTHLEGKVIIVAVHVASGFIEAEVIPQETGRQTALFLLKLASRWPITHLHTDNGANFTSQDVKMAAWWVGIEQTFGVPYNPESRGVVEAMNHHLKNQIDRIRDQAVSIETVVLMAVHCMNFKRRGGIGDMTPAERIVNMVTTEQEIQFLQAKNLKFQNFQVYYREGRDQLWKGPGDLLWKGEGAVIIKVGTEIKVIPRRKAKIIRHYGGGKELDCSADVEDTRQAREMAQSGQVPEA
As to the kind of experiment: susceptibility to RAL, site-directed mutant in N1 background. To be noted: preliminary studies with high protein concentrations. The format is biochemical.
Excerpt: Primer 1: N1, N2, T1, T2, 5'-[…]-3'; N3, 5'-[…] […]-3'; T3-T7, 5'-[…]-3'. Primers 2: N1, 5'-[…]-3'; N2, 5'-[…] […]-3'; N3, 5'-[…] C-3'; T1, T2, 5'-[…]-3'; T3-T7, 5'-GGATC […] -3'.
as §2

In a further experiment the target is T4, HIV-2 N3 IN (Human immunodeficiency virus type 2 subtype B, UniProt Q89928, A1457T/D1293E/D1331N/F1194Y/I1218V/I1301V/I1428V/K1172N/M1455R/N1185G/N1438H/Q1389K/R1202K/R1392Q/T1348A/T1383A).
T4 construct: His-tag (pET-15b) (N); made in house; host or cells: Escherichia coli BL21-CodonPlus (DE3)-RIPL
T4 sequence (Q89928 1169-1461 K1172N/N1185G/F1194Y/R1202K/I1218V/D1293E/I1301V/D1331N/T1348A/T1383A/Q1389K/R1392Q/I1428V/N1438H/M1455R/A1457T): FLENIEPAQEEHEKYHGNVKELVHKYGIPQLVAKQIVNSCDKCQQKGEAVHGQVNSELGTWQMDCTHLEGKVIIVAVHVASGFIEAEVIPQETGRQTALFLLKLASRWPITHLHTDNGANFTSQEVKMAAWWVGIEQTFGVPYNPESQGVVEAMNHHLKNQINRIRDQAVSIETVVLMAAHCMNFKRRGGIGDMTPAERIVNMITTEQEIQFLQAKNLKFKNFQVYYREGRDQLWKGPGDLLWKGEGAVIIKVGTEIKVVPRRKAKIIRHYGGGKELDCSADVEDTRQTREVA
As to the kind of experiment: strand transfer inhibition, IN from clinical isolate N3. The format is biochemical. To be noted: IN from RAL-naive patient N3; 200 nM IN; 37°C; Mg2+. As for the experimental part: as §1, §2

A further experiment deals with HIV-2 IN E92Q (Human immunodeficiency virus type 2 subtype B, UniProt Q89928, E1260Q/I1218V/I1301V/I1372V/M1455R/N1185G/N1438H/R1202K/R1392Q/T1348V/T1383A/V1460M). Particulars: E92Q in N1 background; 200 nM IN. As for the experimental part:
(§4) Mutations were introduced in the HIV-2 N1 background by mutagenesis. […] Activity is expressed as a % of control without drug. Experiments were performed two times.
(§5) The IN coding sequences from the viruses isolated from the plasma of HIV-2-infected patients N1 to N3 and T1 to T7 were amplified by PCR and sequenced according to a previously described procedure. PCR products corresponding to the entire IN sequence were amplified again with the following specific primers containing NdeI and BamH I restriction sites at their 5' ends. Primer 1: N1, N2, T1, T2, 5'-[…]-3'; N3, 5'-[…]-3'; T3-T7, 5'-[…]-3'. Primers 2: N1, 5'-[…]-3'; N2, 5'-[…]-3'; N3, 5'-[…] The amplicons were then ligated into the TA cloning plasmid pGEM-T easy (Promega, Madison, USA). Single (E92Q, T97A, G140S, Q148R, Y143C, N155H) and double (G140S/Q148R, Y143C/N155H, E92Q/Y143C and T97A/Y143C) mutations were introduced into the HIV-2 wild-type N1 sequence by mutagenesis using the QuickChange II site-directed mutagenesis kit (Agilent Technologies, Santa Clara, USA) according to the manufacturer instructions. NdeI - BamH fragments covering the IN coding sequence were then inserted into the expression vector pET-15b.
as §3

In another experiment the target is HIV-2 IN G140S/Q148R (Human immunodeficiency virus type 2 subtype B, UniProt Q89928, G1308S/I1218V/I1301V/I1372V/M1455R/N1185G/N1438H/Q1316R/R1202K/R1392Q/T1348V/T1383A/V1460M). To be noted: G140S/Q148R in N1 background; 200 nM IN. As for the experimental part: as §4, §5, §3

In the case of `Cc1nnc(C(=O)NC(C)(C)c2nc(C(=O)NCc3ccc(F)cc3)c(O)c(=O)n2C)o1` [RAL, raltegravir], the IC50 was 23 nM at HIV-2 N1 IN and 48 nM against HIV-2 N3 IN. In addition, on HIV-2 IN (N1 to N3), the “effect on 3' processing in vitro” value is “no significant effect”. In addition, the “susceptibility to RAL” value on HIV-2 IN Q148R is given as “not susceptible”. Further, the “resistance to RAL, strand transfer” value was “did not confer significant resistance” at HIV-2 IN E92Q and “highly resistant” at HIV-2 IN G140S/Q148R.
